# Experimental data published in patent publication US4005217A, “Treatment of helminth infections with substituted phenyl-thiourea derivatives” (May & Baker Limited, priority 1970, dated 1977).
# Where a name gives a salt, the structure may show the parent alone. Read-outs that look alike come from different tables or passages of the source.
# How the values were obtained:
# [1] = tested on: Nippostrongylus brasiliensis; experiment: Test 2: activity against roundworms in rats, treatment 24 hours after infection, worm counts 6 days after dosing; assay type: in vivo
# Protocol: Test 2 -- Rats were infected with 100 Nippostrongylus brasiliensis larvae each, by the subcutaneous route. After 24 hours the rats were randomised and allotted to groups of 5 animals each, ready for treatment. Doses of the test compound were then administered to each group by the oral, subcutaneous and intraperitoneal routes respectively, one group of 10 animals being left untreated as a control. All the rats were killed for post-mortem worm counts 6 days after dosing. The activities, expressed in terms of the percentage reductions in mean worm load of the treated groups or damage to the worms compared with the untreated control group, are given below in Table I.
# [2] = tested on: Nippostrongylus brasiliensis eggs; experiment: In vitro activity against roundworms (egg hatching and larvae); assay type: cell-based; conditions: 96 h, tested at 100, 10, 1 and 0.1 μg/ml, inhibited or delayed hatching of eggs, or killed, retarded growth or reduced activity of larvae during 4 days, read-out: M.I.C. (minimum inhibitory concentration)
# Protocol: Compounds of formula I were tested at concentrations of 100 μg/ml, 10 μg/ml, 1 μg/ml and 0.1 μg/ml in small glass containers. If the compound was not soluble in water, a volatile organic medium, e.g. acetone, chloroform, ethanol or methanol was used. An amount of material appropriate for each final concentration was measured and placed in duplicate test containers and if an organic solvent was used it was allowed to evaporate completely. Nippostrongylus brasiliensis eggs were recovered by saturated saline centrifugal flotation from the faeces of rats heavily infected with third stage larvae six days previously. They were washed several times in water and suspended in water in a suitable concentration. From 25-50 eggs were placed in each container and the final volume was made up by the addition of a very dilute aqueous suspension of mouse faeces which served as the growth medium. The minimum inhibitory concentrations of each compound (M.I.C.), shown in the following Table V was the minimum concentration in μg/ml total liquid volume at which it inhibited or delayed hatching of eggs, or at which it killed, retarded growth or reduced activity of larvae during the 4 days after beginning the test.
# [3] = tested on: Nippostrongylus brasiliensis; experiment: Test 1: activity against roundworms in rats, treatment 6 days after infection (patent infection), worm counts 48 hours after treatment; assay type: in vivo
# Protocol: Test 1 - Rats were infected with 100 Nippostrongylus brasiliensis larvae each, by the subcutaneous route. After 6 days, when the infection was patent, the rats were randomised and alloted to groups of 10 animals each, ready for treatment. One group was used for each dose level of the test compound and, in each experiment, one group was left untreated as a control. All the rats were killed for post-mortem worm counts 48 hours after treatment. The activity, expressed in terms of the percentage reduction in mean worm load of the treated group compared with the untreated group, is shown in Table I.
# [4] = tested on: influenza virus type A2 /Hong Kong/5/68; assay type: in vivo; conditions: mice, 250 mg/kg oral 3 hours before and 1 hour after infection; pooled lungs 24 hours after infection; greatest dilution producing agglutination
# [5] = Nippostrongylus brasiliensis, 144 h, rats, Test 2, 1000 mg/kg oral, read-out: Percentage reduction in N.brasiliensis load
# [6] = Nippostrongylus brasiliensis, ip, 144 h, rats, Test 2, 250 mg/kg intraperitoneal, read-out: Percentage reduction in N.brasiliensis load
# [7] = Nippostrongylus brasiliensis, sc, 144 h, rats, Test 2, 250 mg/kg subcutaneous, read-out: Percentage reduction in N.brasiliensis load
# [8] = Nippostrongylus brasiliensis, po, 48 h, Test 1, 1000 mg/kg oral, read-out: Percentage reduction in N.brasiliensis load
compound,measurement,setting,value
CCOC(=O)NC(=S)Nc1cc(NC(=O)OC(C)C)ccc1NC(=O)CN(C)C [1-ethoxycarbonyl-3-(2-dimethylaminoacetamido-5-isopropoxycarbonylaminophenyl)-thiourea hydrochloride],inhibition in vivo at 1000 mg/kg,[1]; [5],100%
same,inhibition in vivo at 250 mg/kg,[1]; [6],50%
same,inhibition in vivo at 250 mg/kg,[1]; [7],60%
same,MIC,[2],100 µg/mL
COC(=O)NC(=S)Nc1ccccc1NC(=O)CCN(C)C.Cl [1-methoxycarbonyl-3-[2-(3-dimethylaminopropionamido)phenyl]thiourea hydrochloride],inhibition in vivo at 1000 mg/kg,[1]; [5],98%
same,worm damage,"[1]; rats, Test 2, 1000 mg/kg oral",worm damage
same,inhibition in vivo at 1000 mg/kg,[3]; [8],20%
same,worm damage,"[3]; Test 1, 1000 mg/kg oral",worm damage
same,MIC,[2],1 µg/mL
CCOC(=O)NC(=S)Nc1ccccc1NC(=O)C(C)N(C)C (racemic) [1-ethoxycarbonyl-3[2-(1-dimethylaminoethylcarbonylamino)phenyl]thiourea],inhibition in vivo at 1000 mg/kg,[1]; [5],100%
same,inhibition in vivo at 1000 mg/kg,[3]; [8],97%
COC(=O)NC(=S)Nc1ccc(C)cc1N [1-methoxycarbonyl-3-(2-amino-4-methylphenyl)thiourea],inhibition in vivo at 1000 mg/kg,[1]; [5],97%
same,worm damage,"[1]; rats, Test 2, 1000 mg/kg oral",worm damage
same,MIC,[2],100 µg/mL
COC(=O)NC(=S)Nc1cc(NC(=O)OC(C)C)ccc1NC(C)=O [1-methoxycarbonyl-3-(2-acetamido-5-isopropoxycarbonylaminophenyl)thiourea],Haemagglutinin titre-treated animals,[4],1/128
CCOC(=O)NC(=S)Nc1ccccc1NC(=O)C[N+](C)(C)C [1-ethoxycarbonyl-3-(2-trimethylammoniumacetamidophenyl)thiourea iodide],inhibition in vivo at 1000 mg/kg,[1]; [5],60%
same,worm damage,"[1]; rats, Test 2, 1000 mg/kg oral",worm damage
same,MIC,[2],0.1 µg/mL
CCOC(=O)Nc1ccc(NC(=S)NC(=O)OC)c(N)c1 [1-methoxycarbonyl-3-(2-amino-4-ethoxycarbonylaminophenyl)thiourea],inhibition in vivo at 1000 mg/kg,[1]; [5],99%
same,MIC,[2],10 µg/mL
CCOC(=O)NC(=S)Nc1cc(NC(=O)OC)ccc1NC(=O)CN(C)C [1-ethoxycarbonyl-3-(2-dimethylaminoacetamido-5-methoxycarbonylaminophenyl)thiourea hydrochloride],inhibition in vivo at 1000 mg/kg,[1]; [5],100%
CCOC(=O)NC(=S)Nc1cc(NC(=O)OC(C)C)ccc1NC(C)=O [1-ethoxycarbonyl-3-(2-acetamido-5-isopropoxycarbonylaminophenyl)thiourea],Haemagglutinin titre-treated animals,[4],1/256
CCCCc1ccc(NC(=S)NC(=O)OCC)c(N)c1 [1-ethoxycarbonyl-3-(2-amino-4-n-butylphenyl)-thiourea],MIC,[2],1 µg/mL
CCCCc1ccc(NC(=O)CN(C)C)c(NC(=S)NC(=O)OCC)c1 [1-ethoxycarbonyl-3-(5-n-butyl-2-dimethylaminoacetamidophenyl)thiourea hydrochloride],inhibition in vivo at 1000 mg/kg,[1]; [5],88%
same,inhibition in vivo at 1000 mg/kg,[3]; [8],30%
same,MIC,[2],0.1 µg/mL
CCCCN(CCCC)CC(=O)Nc1ccccc1NC(=S)NC(=O)OCC [1-ethoxycarbonyl-3-(2-di-n-butylaminoacetamidophenyl)thiourea hydrochloride],inhibition in vivo at 1000 mg/kg,[1]; [5],97%
same,MIC,[2],0.1 µg/mL
CCOC(=O)NC(=S)Nc1ccc(NC(=O)OC(C)C)cc1NC(C)=O [1-ethoxycarbonyl-3-(2-acetamido-4-isopropoxycarbonylaminophenyl)thiourea],inhibition in vivo at 1000 mg/kg,[1]; [5],62%
COC(=O)NC(=S)Nc1ccccc1N.O=[N+]([O-])O [1-methoxycarbonyl-3-(2-aminophenyl)thiourea nitrate],inhibition in vivo at 1000 mg/kg,"[1]; Nippostrongylus brasiliensis, po, 144 h, read-out: Percentage reduction in N.brasiliensis load, rats, Test 2, 1000 mg/kg oral",99%
same,Percentage reduction in N.brasiliensis load,"[3]; Test 1, 1000 mg/kg oral",99%
CCOCCOC(=O)NC(=S)Nc1ccccc1N [1-(2-ethoxyethoxycarbonyl)-3-(2-aminophenyl)thiourea],inhibition in vivo at 1000 mg/kg,[1]; [5],90%
same,worm damage,"[1]; rats, Test 2, 1000 mg/kg oral",worm damage
CCOC(=O)NC(=S)Nc1ccccc1NC(=O)CN(C)C [1-ethoxycarbonyl-3-(2-dimethylaminoacetamidophenyl)thiourea hydrochloride],inhibition in vivo at 1000 mg/kg,[1]; [5],98%
same,inhibition in vivo at 125 mg/kg,"[1]; Nippostrongylus brasiliensis, ip, 144 h, rats, Test 2, 125 mg/kg intraperitoneal, read-out: Percentage reduction in N.brasiliensis load",85%
same,inhibition in vivo at 100 mg/kg,"[1]; Nippostrongylus brasiliensis, sc, 144 h, rats, Test 2, 100 mg/kg subcutaneous, read-out: Percentage reduction in N.brasiliensis load",76%
same,inhibition in vivo at 1000 mg/kg,[3]; [8],85%
same,MIC,[2],0.1 µg/mL
COC(=O)NC(=S)Nc1ccc(C(C)=O)cc1N [1-methoxycarbonyl-3-(4-acetyl-2-aminophenyl)thiourea],inhibition in vivo at 1000 mg/kg,[1]; [5],73%
same,worm damage,"[1]; rats, Test 2, 1000 mg/kg oral",worm damage
CCOC(=O)NC(=S)Nc1ccccc1NC(=O)CN(CC)CC [1-ethoxycarbonyl-3-(2-diethylaminoacetamidophenyl)thiourea hydrochloride],inhibition in vivo at 1000 mg/kg,[1]; [5],100%
same,inhibition in vivo at 250 mg/kg,[1]; [6],99%
same,inhibition in vivo at 250 mg/kg,[1]; [7],95%
same,inhibition in vivo at 1000 mg/kg,[3]; [8],44%
same,MIC,[2],0.1 µg/mL
COC(=O)NC(=S)Nc1ccccc1NC(=O)C=CC(=O)O [1-methoxycarbonyl-3-[2-(3-carboxyacrylamido)phenyl]thiourea],inhibition in vivo at 1000 mg/kg,[1]; [5],99%
same,MIC,[2],1 µg/mL
"CCOC(=O)NC(=S)Nc1ccccc1NC(=O)CN1C[C@@H](C)O[C@@H](C)C1 [1-ethoxycarbonyl-3-[2-(2,6-cis-dimethylmorpholinoacetamido)phenyl]thioureahydrochloride]",inhibition in vivo at 250 mg/kg,[1]; [6],93%
same,inhibition in vivo at 250 mg/kg,[1]; [7],95%
same,MIC,[2],0.1 µg/mL
CCOC(=O)NC(=S)Nc1ccc(Cl)cc1N [1-ethoxycarbonyl-3-(2-amino-4-chlorophenyl)thiourea],MIC,[2],10 µg/mL
CCOC(=O)NC(=S)Nc1ccccc1NC(=O)CN1CCN(C)CC1.Cl [1-ethoxycarbonyl-3-[2-(4-methylpiperazin-1-ylacetamido)phenyl]thiourea hydrochloride],inhibition in vivo at 1000 mg/kg,[1]; [5],100%
same,inhibition in vivo at 250 mg/kg,[1]; [6],98%
same,inhibition in vivo at 250 mg/kg,[1]; [7],93%
same,worm damage,"[3]; Test 1, 1000 mg/kg oral",worm damage
same,MIC,[2],0.1 µg/mL
C#CCOC(=O)NC(=S)Nc1ccccc1N [1-propargyloxycarbonyl-3-(2-aminophenyl)thiourea],inhibition in vivo at 1000 mg/kg,[1]; [5],100%
same,inhibition in vivo at 1000 mg/kg,[3]; [8],76%
same,worm damage,"[3]; Test 1, 1000 mg/kg oral",worm damage
same,MIC,[2],1 µg/mL
CCOC(=O)NC(=S)Nc1ccccc1NC(=O)CN(C)Cc1ccccc1 [1-ethoxycarbonyl-3-[2-(N-benzyl-N-methylaminoacetamido)-phenyl]thiourea hydrochloride],inhibition in vivo at 1000 mg/kg,[1]; [5],99%
same,worm damage,"[1]; rats, Test 2, 1000 mg/kg oral",worm damage
same,inhibition in vivo at 1000 mg/kg,[3]; [8],50%
same,worm damage,"[3]; Test 1, 1000 mg/kg oral",worm damage
same,MIC,[2],0.1 µg/mL
COC(=O)NC(=S)Nc1ccccc1N [1-methoxycarbonyl-3-(2-aminophenyl)thiourea hydrochloride],inhibition in vivo at 1000 mg/kg,[1]; [5],100%
same,inhibition in vivo at 1000 mg/kg,[3]; [8],100%
CCOC(=O)NC(=S)Nc1ccccc1NC(=O)CN1CCCCC1 [1-ethoxycarbonyl-3-(2-piperidinoacetamidophenyl)thiourea hydrochloride],inhibition in vivo at 1000 mg/kg,[1]; [5],98%
same,inhibition in vivo at 1000 mg/kg,[3]; [8],85%
same,MIC,[2],1 µg/mL
CCOC(=O)NC(=S)Nc1ccccc1NC(=O)CN1CCOCC1 [1-ethoxycarbonyl-3-(2-morpholinoacetamidophenyl)thiourea hydrochloride],inhibition in vivo at 1000 mg/kg,[1]; [5],99%
same,MIC,[2],0.1 µg/mL
CCCCOC(=O)NC(=S)Nc1ccccc1N [1-butoxycarbonyl-3-(2-aminophenyl)thiourea],MIC,[2],1 µg/mL
COC(=O)NC(=S)Nc1ccccc1N.Cc1ccc(S(=O)(=O)O)cc1 [1-methoxycarbonyl-3-(2-aminophenyl)thiourea toluene-p-sulphonate],Percentage reduction in N.brasiliensis load,"[1]; rats, Test 2, 1000 mg/kg oral",99%
same,Percentage reduction in N.brasiliensis load,"[3]; Test 1, 1000 mg/kg oral",98%
CCCCc1ccc(NC(=S)NC(=O)OC)c(NC(=O)OCC)c1 [1-methoxycarbonyl-3-(4-n-butyl-2-ethoxycarbonylaminophenyl)thiourea],inhibition in vivo at 500 mg/kg,"[3]; Nippostrongylus brasiliensis, po, 48 h, Test 1, 500 mg/kg oral, read-out: Percentage reduction in N.brasiliensis load",40%
same,worm damage,"[3]; Test 1, 500 mg/kg oral",worm damage
same,MIC,[2],0.1 µg/mL
